The text below walks through data of patent US8541543B2, “Peptides specific for hepatocellular carcinoma cells and applications thereof” (Academia Sinica, priority 2007, dated 2013).

One test relates to advanced HCC. Conditions: HCC (ref 36); cited from earlier work.
For test [1], the system named is Mahlavu-derived HCC xenografts. The experiment in a line: Immunohistochemical tissue distribution of targeting phages in tumor-bearing mice. Format: in vivo, SCID mice. The note with it: FIG. 3C, j. The protocol: (§1) SCID mice (4-6 weeks old) were injected subcutaneously (s.c.) into the dorsal-lateral flank with 5×10^6 Mahlavu cells. Mice bearing Mahlavu-derived xenografts (500 mm^3) were injected intravenously (i.v.) with 2×10^9 pfu of PC94 or control phage. After perfusion, the organs (brain, heart, and lungs) and tumor tissue were removed, washed with cold PBS and weighed. The phage bound to the tumor tissue and organs were rescued by Escherichia coli ER2738 culture. The eluted phage particles were titrated on LB/IPTG/X-Gal plates. In peptide competitive inhibition experiments, 2×10^9 pfu of PC94 phage was co-injected with 100 μg of SP94 peptide or the control peptide. The tissue distribution of targeting phages in the tumor-bearing mice was examined by immunohistochemical staining. The tissue sections were incubated with mouse anti-M13 antibody, followed by incubation with biotinylated horse anti-mouse antibody (ABC kit; Vector Laboratories, Burlingame, Calif., USA) and washed with PBS, then immersed with ABC reagent. The sections were immersed in DAB solution plus 0.01% hydrogen peroxide, washed with PBS and mounted with 50% glycerol in PBS.

The subject of test [2] is Mahlavu-derived HCC xenografts. The experiment in a line: In vivo peptide competitive inhibition of PC94 tumor binding. Details: species or system SCID mice. The note with it: 100 μg peptide co-injected with PC94, FIG. 3B. As to the method:
as §1

For the compound `COc1cccc2c1C(=O)c1c(O)c3c(c(O)c1C2=O)C[C@@](O)(C(=O)CO)C[C@@H]3O[C@H]1C[C@H](N)[C@H](O)[C@H](C)O1` [doxorubicin], in the test on advanced HCC, the overall response rate is 18%.

Take SFSIIHTPILPL [SP94]: the “immuno-reactivity of tumor tissue when PC94 co-injected with peptide” value in test [1] is listed as “no immuno-reactivity was found in the tumor tissue”.

As to FPWFPLPSPYGN [control peptide], in test [2], the “inhibition of PC94 binding to tumor tissue” value is listed as “no such inhibitory effect”.
